In US6784201B2, “Benzothiepines having activity as inhibitors of ileal bile acid transport and taurocholate uptake” (G.D. Searle & Company, priority 1994, dated 2004):
Like-named read-outs stand apart in the source and are kept apart here.

Legend:
ACAT = assay: Acyl-CoA; cholesterol acyl transferase (ACAT), rat intestinal microsomes; format: biochemical; conditions: read-out: ACAT intestine IC(50)
Procedure: Acyl-CoA; Cholesterol Acyl Transferase (ACAT)
Hamster liver and rat intestinal microsomes were prepared from tissue as described previously (Reference: (1980) J. Biol. Chem. 255, 9098) and used as a source of ACAT enzyme. The assay consisted of a 2.0 ml incubation containing 24 μM Oleoyl-CoA (0.05 μCi) in a 50 mM sodium phosphate, 2 mM DTT ph 7.4 buffer containing 0.25% BSA and 200 μg of microsomal protein. The assay was initiated by the addition of oleoyl-CoA. The reaction went for 5 min at 37° C. and was terminated by the addition of 8.0 ml of chloroform/methanol (2:1). […] The chloroform phase was taken to dryness and then spotted on a silica gel 60 TLC plate and developed in hexane/ethyl ether (9:1). The amount of cholesterol ester formed was determined by measuring the amount of radioactivity incorporated into the cholesterol oleate spot on the TLC plate with a Packard instaimager.

Hepatic Cholesterol = assay: Hepatic cholesterol concentration, cholesterol-fed hamsters; format: in vivo, hamster; conditions: 0.2% Cpd. No. 25, mean (SEM)
Procedure: Measurement of Hepatic Cholesterol Concentration (Hepatic CHOL)
Liver tissue was weighed and homogenized in chloroform:methanol (2:1). After homogenization and centrifugation the supernatant was separated and dried under nitrogen. The residue was dissolved in isopropanol and the cholesterol content was measured enzymatically, using a combination of cholesterol oxidase and peroxidase, as described by Allain, C. A., et al. (1974) Clin. Chem. 20, 470.

[1] = Rat Alzet minipump model: body, liver and fecal weight; format: in vivo; conditions: 20 MPL/DAY, mean (SEM)
Serum Cholesterol [2] = assay: Determination of serum cholesterol, rat Alzet minipump model; format: in vivo; conditions: 20 MPL/DAY, mean (SEM)
Procedure: (§1) Determination of Serum Cholesterol (SER.CHOL, HDL-CHOL, TGI and VLDL+LDL)
(§2) Total serum cholesterol (SER.CHOL) was measured enzymatically using a commercial kit from Wako Fine Chemicals (Richmond, Va.); Cholesterol C11, Catalog No. 276-64909. HDL cholesterol (HDL-CHOL) was assayed using this same kit after precipitation of VLDL and LDL with Sigma Chemical Co. HDL Cholesterol reagent, Catalog No. 352-3 (dextran sulfate method). Total serum triglycerides (blanked) (TGI) were assayed enzymatically with Sigma Chemical Co. GPO-Trinder, Catalog No. 337-B. VLDL and LDL (VLDL+LDL) cholesterol concentrations were calculated as the difference between total and HDL cholesterol.

Fecal Bile Acid = assay: Fecal bile acid concentration (FBA), rat Alzet minipump model; format: in vivo; conditions: 20 MPL/DAY, mean (SEM)
Procedure: Measurement of Fecal Bile Acid Concentration (FBA)
Total fecal output from individually housed hamsters was collected for 24 or 48 hours, dried under a stream of nitrogen, pulverized and weighed. Approximately 0.1 gram was weighed out and extracted into an organic solvent (butanol/water). Following separation and drying, the residue was dissolved in methanol and the amount of bile acid present was measured enzymatically using the 3α-hydroxysteroid steroid dehydrogenase reaction with bile acids to reduce NAD. (Reference: Mashige, F., et al. (1981) Clin. Chem. 27, 1352).

[3] = test system: Hepatic Cholesterol 7-α-Hydroxylase; assay: Hepatic cholesterol 7-α-hydroxylase activity, rat Alzet minipump model; format: in vivo; conditions: 20 MPL/DAY, mean (SEM)
Procedure: Measurement of Hepatic Cholesterol 7-α-Hydroxylase Activity (7a-OHase)
Hepatic microsomes were prepared by homogenizing liver samples in a phosphate/sucrose buffer, followed by centrifugal separation. The final pelleted material was resuspended in buffer and an aliquot was assayed for cholesterol 7-α-hydroxylase activity by incubating for 5 minutes at 37° C. in the presence of NADPH. Following extraction into petroleum ether, the organic solvent was evaporated and the residue was dissolved in acetonitrile/methanol. The enzymatic product was separated by injecting an aliquot of the extract onto a C18 reversed phase HPLC column and quantitating the eluted material using UV detection at 240 nm. (Reference: Horton, J. D., et al. (1994) J. Clin. Invest. 93, 2084).

Serum Cholesterol [4] = assay: Determination of serum cholesterol (SER.CHOL, HDL-CHOL, TGI, VLDL+LDL), cholesterol-fed hamsters; format: in vivo, hamster; conditions: 0.2% Cpd. No. 25, mean (SEM)
Procedure: as §1, §2

human IBAT = target: T1, human IBAT (Homo sapiens, UniProt Q12908); assay: In vitro assay of IBAT-mediated uptake of [14C]-taurocholate (TC) in H14 cells; format: cell-based
T1 construct: expressed in transfected cells; host or cells: Baby hamster kidney (BHK) cells, clone H14
T1 sequence (Q12908 1-348): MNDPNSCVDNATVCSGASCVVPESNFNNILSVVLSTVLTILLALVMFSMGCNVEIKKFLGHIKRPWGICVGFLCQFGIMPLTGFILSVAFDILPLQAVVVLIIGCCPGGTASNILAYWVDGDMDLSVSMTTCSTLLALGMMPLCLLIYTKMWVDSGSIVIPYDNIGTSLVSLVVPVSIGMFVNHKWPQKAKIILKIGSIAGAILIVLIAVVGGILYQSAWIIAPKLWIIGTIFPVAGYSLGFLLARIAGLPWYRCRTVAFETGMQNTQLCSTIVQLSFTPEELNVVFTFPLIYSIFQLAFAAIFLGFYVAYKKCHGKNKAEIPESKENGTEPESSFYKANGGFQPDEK
Summary of the method: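 BHK cells stably expressing human IBAT (H14) were incubated 2 h at 37° C with compound and 3 μM final [14C]-taurocholate in DMEM (4.5 g/L glucose) plus 0.2% fatty acid-free BSA. After cold PBS washes, cell-associated radioactivity was measured by scintillation counting.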

H14 cells = assay: In vitro assay of uptake of [14C]-alanine; format: cell-based, hamster; conditions: Mesocricetus auratus; 10 μM
Summary of the method: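 H14 cells (BHK expressing human IBAT) incubated 2 h at 37 °C with compound and labelled alanine, in the same format as the 3 μM [14C]-taurocholate uptake assay, in DMEM with 0.2% fatty acid-free BSA. After cold PBS washes, cell-associated radioactivity measured by scintillation counting.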

CCCC[C@]1(CC)CS(=O)(=O)c2cc(OC)ccc2[C@@H](c2ccccc2)[C@H]1O [Example 25, (3α,4β,5β) 3-Butyl-3-ethyl-4-hydroxy-8-methoxy-5-phenyl-2,3,4,5-tetrahydrobenzothiepine-1,1-dioxide]
IC50 (ACAT): 8 µM
HEPATIC CHOL (mg/g) (Hepatic Cholesterol): 1.9 (0.1) mg/g
LIVER WEIGHT (G) [1]: 14.6 (0.4) G
WEIGHT (G) day 1 [1]: 307 (3) G
WEIGHT (G) day 8 [1]: 310 (4) *A, B G
SER.CHOL (mg %) (Serum Cholesterol [2]): 84 (3) mg %
FBA (mM/24 H/100 g) (Fecal Bile Acid): 39.1 (4.5) *A, B mM/24 H/100 g
7a-OHase (pm/mg/min) [3]: 535.2 (35.7) *A, B pm/mg/min
HDL-CHOL (mg %) (Serum Cholesterol [4]): 76 (1) *A, B mg %
SER.CHOL (mg %) (Serum Cholesterol [4]): 126 (2) mg %
TGI (mg %) (Serum Cholesterol [4]): 175 (11) mg %
VLDL + LDL (Serum Cholesterol [4]; difference total minus HDL cholesterol): 50 (3)
IC50 (human IBAT; H14 cells, Table 5, read-out: IC50 uM (In vitro Taurocholate Cell Uptake)): 0.1 µM
IC50 (human IBAT; Table 6, read-out: TC-uptake (H14 cells) IC(50)): 0.1 µM
inhibition at 10 µM (H14 cells): 4%
